Measurements: US20130245047A1, “COMPOSITIONS FOR TREATING CANCER-RELATED FATIGUE AND METHODS OF SCREENING THEREOF” (TENERA THERAPEUTICS, LLC, priority 2011, published 2013)
Each block holds one compound with its values, some of them ahead of it.

Legend:
BALB/c mice = experiment: etoposide-induced fatigue model (CTRF animal model), activity, weight and blood chemistry; format: in vivo
Experimental: An animal model has been developed to screen for drugs which are efficacious in the treatment, alleviation and/or prevention of chronic fatigue syndrome, such as cancer treatment-related fatigue (“CTRF”). […] The animal's overall activity is measured using a running wheel or other method. In addition, the animal's day and night activity profiles are measured to determine when disrupted sleep architecture is present. This is characterized by disruption of the REM sleep as well as fatigue and cognitive dysfunction. The animal's percent daily weight change is also determined. The levels of cytokines such as IL-6 can be measured, since these are typically elevated with chemotherapy treatment. Results can be provided as percent change of total activity, percent change relative to light exposure, percent weight change over a defined time period (day, week), and combinations thereof.
The model can be created using any one of a number of different drugs, alone or in combination with additional therapy, such as one or more other chemotherapeutics or radiation. The in vitro and in vivo models described above can be used to identify compounds that effectively treat CTRF. In one embodiment, etoposide is administered in a dosage of 50 to 60 mg/kg to cause CTRF. In this study etoposide was administered by a single intraperitoneal injection on the first day of the study.
(§1) For the etoposide-induced fatigue model (FIGS. 2-7), BALB/c mice (obtained and housed as described above) were divided into groups of 10 animals per group: 1. control (untreated) mice, 2. mice treated with a single intraperitoneal dose of 60 mg/kg etoposide on day 1, and 3. mice treated with a single intraperitoneal dose of 60 mg/kg etoposide on day 1, followed by daily oral doses of pentoxifylline administered as a 1 mg/kg dose in the drinking water throughout the study. The animals were then assessed for their level of activity relative to time of day (day and night); total locomotor activity; blood chemistry (hemoglobin, red blood cells, white blood cells); over time in weeks.

IL-6 = IL-6 levels in etoposide-treated animals; format: in vivo, mice; conditions: increasing etoposide dosing (0, 50 or 60 mg/kg); FIG. 3
Experimental: An animal model has been developed to screen for drugs which are efficacious in the treatment, alleviation and/or prevention of chronic fatigue syndrome, such as cancer treatment-related fatigue (“CTRF”). […] The animal's overall activity is measured using a running wheel or other method. In addition, the animal's day and night activity profiles are measured to determine when disrupted sleep architecture is present. This is characterized by disruption of the REM sleep as well as fatigue and cognitive dysfunction. The animal's percent daily weight change is also determined. The levels of cytokines such as IL-6 can be measured, since these are typically elevated with chemotherapy treatment. […]
as §1, with “[…], […],” for “2. mice treated with a single intraperitoneal dose of 60 mg/kg etoposide on day 1, and 3. mice treated with a single intraperitoneal dose of 60 mg/kg etoposide on day 1,”

female BALB/c mice = experiment: LPS-induced fatigue model, daily activity counts; format: in vivo; conditions: single intraperitoneal dose of 2.5 mg/kg lipopolysaccharide vs saline control; FIG. 1
Experimental: For the LPS-induced fatigue model shown in FIG. 1, […], female BALB/c mice were obtained from Charles River Laboratories (Wilmington, Mass.). The mice were randomized into 2 groups of 10 prior to treatment. Animals were housed 5 per cage in micro-isolators and allowed to acclimatize for 4 days prior to dosing. Animal were given food and water ad libitum with a 12 hour light/12 hour dark schedule.
Animals in the control group were initially injected intraperitoneally with saline. Animals in the LPS group were injected intraperitoneally with a single dose of 2.5 mg/kg lipopolysaccharide on dayl.

[1] = etoposide, over time in days, FIG. 5

Compound: CC(=O)CCCCn1c(=O)c2c(ncn2C)n(C)c1=O [Pentoxifylline]
- total locomotor activity (BALB/c mice; animals treated with 60 mg etoposide/kg, then daily oral pentoxifylline 1 mg/kg in drinking water, FIG. 6): improves activity
- 12 hour dark activity over time (weeks) (BALB/c mice; etoposide treated followed by pentoxifylline 1 mg/kg daily oral vs etoposide treated and untreated control, FIG. 7A): significantly increase nocturnal activity
- 12 hour light activity over time (weeks) (BALB/c mice; etoposide treated followed by pentoxifylline 1 mg/kg daily oral vs etoposide treated and untreated control, FIG. 7B): decrease activity when animals should be sleeping

- fatigue (percent of baseline) over time (weeks) (BALB/c mice; 60 mg etoposide/kg, 12 hour dark cycle or 12 hour light cycle, FIG. 4): decreased activity
- percent daily weight change (shift of circadian rhythm) (BALB/c mice; [1]): weight loss
- dependence of the observed results on anemia (blood chemistry) (BALB/c mice; mice treated with etoposide): independent of anemia
- levels of IL-6 (IL-6): increased levels of IL-6
Compound: COc1cc([C@@H]2c3cc4c(cc3[C@@H](O[C@@H]3O[C@@H]5CO[C@@H](C)O[C@H]5[C@H](O)[C@H]3O)[C@H]3COC(=O)[C@H]23)OCO4)cc(OC)c1O [etoposide]
- total locomotor activity over time (weeks) (BALB/c mice; 60 mg etoposide/kg single intraperitoneal dose, FIG. 2): decreased total activity over time of treatment
- activity counts (shift of circadian rhythm) (BALB/c mice; [1]): decreased activity, which was more pronounced during the evening

Compound: lipopolysaccharide [LPS]
- total daily activity (counts/group) per day (female BALB/c mice): decreased activity indicative of fatigue
